Measured values: patent US8563542B2 (Cyclacel Limited, priority 2007, dated 2013)

target: PLK1 (Homo sapiens, UniProt P53350); assay: PLK1 protein kinase assay (CDC25C phosphorylation, [γ-32P]-ATP); assay type: biochemical; settings: Table 1; read-out: PLK1 IC50
Sequence (P53350 whole entry): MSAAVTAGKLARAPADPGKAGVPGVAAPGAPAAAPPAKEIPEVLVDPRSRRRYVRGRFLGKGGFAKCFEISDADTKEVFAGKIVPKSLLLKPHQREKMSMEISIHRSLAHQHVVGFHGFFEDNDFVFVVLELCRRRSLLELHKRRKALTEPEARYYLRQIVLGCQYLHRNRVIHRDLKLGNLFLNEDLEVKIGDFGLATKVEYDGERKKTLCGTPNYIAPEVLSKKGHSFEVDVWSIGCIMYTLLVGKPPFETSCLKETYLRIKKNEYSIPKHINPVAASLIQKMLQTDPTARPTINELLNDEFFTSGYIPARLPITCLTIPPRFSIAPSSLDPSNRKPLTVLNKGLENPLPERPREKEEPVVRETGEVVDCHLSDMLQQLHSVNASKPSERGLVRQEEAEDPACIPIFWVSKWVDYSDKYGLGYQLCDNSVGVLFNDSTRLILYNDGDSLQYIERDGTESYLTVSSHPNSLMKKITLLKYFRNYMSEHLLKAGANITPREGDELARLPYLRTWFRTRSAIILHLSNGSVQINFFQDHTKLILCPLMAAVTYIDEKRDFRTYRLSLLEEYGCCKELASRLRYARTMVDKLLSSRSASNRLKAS

Row | SMILES | IC50
1 | COc1cc(C(=O)NC2CCN(C)CC2)ccc1Nc1ncc2c(n1)N(C1CCCCC1)CCC(=O)N2 [compound 39, 4-(9-Cyclohexyl-6-oxo-6,7,8,9-tetrahydro-5H-pyrimido[4,5-b][1,4]diazepin-2-ylamino)-3-methoxy-N-(1-methyl-piperidin-4-yl)-benzamide] | < 10000 nM

same assay, conditions: Table 2, PLK1 IC50; class symbols; read-out: PLK1 IC50

Row | SMILES | IC50
2 | CCC1CN(C2CCCC2)c2nc(Nc3ccc(C(=O)NC4CCN(C)CC4)cc3OC)ncc2N(C)C1=O (stereo not shown) [compound 40, 4-(9-Cyclopentyl-7-ethyl-5-methyl-6-oxo-6,7,8,9-tetrahydro-5H-pyrimido[4,5-b][1,4]diazepin-2-ylamino)-3-methoxy-N-(1-methyl-piperidin-4-yl)-benzamide] | < 100 nM
3 | COc1cccc(N2CCC(=O)N(C)c3cnc(Nc4ccc(C(=O)NC5CCN(C)CC5)cc4OC)nc32)c1 [compound 48, 3-Methoxy-4-[9-(3-methoxy-phenyl)-5-methyl-6-oxo-6,7,8,9-tetrahydro-5H-pyrimido[4,5-b][1,4]diazepin-2-ylamino]-N-(1-methyl-piperidin-4-yl)-benzamide] | < 10000 nM
4 | COc1cc(C(=O)NC2CCN(C)CC2)ccc1Nc1ncc2c(n1)N(c1ccccc1F)CCC(=O)N2C [compound 52, 4-[9-(2-Fluoro-phenyl)-5-methyl-6-oxo-6,7,8,9-tetrahydro-5H-pyrimido[4,5-b][1,4]diazepin-2-ylamino]-3-methoxy-N-(1-methyl-piperidin-4-yl)-benzamide] | < 1000 nM
5 | CCOc1cc(C(=O)NC2CCN(C)CC2)ccc1Nc1ncc2c(n1)N(C1CCCC1)CCC(=O)N2C [compound 59, 4-(9-Cyclopentyl-5-methyl-6-oxo-6,7,8,9-tetrahydro-5H-pyrimido[4,5-b][1,4]diazepin-2-ylamino)-3-ethoxy-N-(1-methyl-piperidin-4-yl)-benzamide] | < 1000 nM
6 | COc1ccccc1Nc1ncc2c(n1)N(C1CCCC1)CCC(=O)N2C [compound 60, 9-Cyclopentyl-2-(2-methoxy-phenylamine)-5-methyl-5,7,8,9-tetrahydro-pyrimido[4,5-b][1,4]diazepin-6-one] | < 1000 nM
7 | CN1C(=O)CCN(C2CCCC2)c2nc(NCc3ccccc3)ncc21 [compound 62, 2-Benzylamino-9-cyclopentyl-5-methyl-5,7,8,9-tetrahydro-pyrimido[4,5-b][1,4]diazepin-6-one] | < 1000 nM
8 | COc1cc(C(=O)NC2CCN(C)CC2)ccc1Nc1ncc2c(n1)N(CC1CC1)CCC(=O)N2C [compound 65, 4-(9-Cyclopropylmethyl-5-methyl-6-oxo-6,7,8,9-tetrahydro-5H-pyrimido[4,5-b][1,4]diazepin-2-ylamino)-3-methoxy-N-(1-methyl-piperidin-4-yl)-benzamide] | < 100 nM
9 | CCCCN1CCC(=O)N(C)c2cnc(Nc3ccc(C(=O)NC4CCN(C)CC4)cc3OC)nc21 [compound 66, 4-(9-Butyl-5-methyl-6-oxo-6,7,8,9-tetrahydro-5H-pyrimido[4,5-b][1,4]diazepin-2-ylamino)-3-methoxy-N-(1-methyl-piperidin-4-yl)-benzamide] | < 1000 nM
10 | COc1cc(C(=O)NC2CCN(C)CC2)ccc1Nc1ncc2c(n1)N(C(C)C)CCC(=O)N2C [compound 67, 4-(9-Isopropyl-5-methyl-6-oxo-6,7,8,9 tetrahydro-5H-pyrimido[4,5-b][1,4]diazepin-2-ylamino)-3-methoxy-N-(1-methyl-piperidin-4-yl)-benzamide] | < 100 nM
11 | COc1cc(C(=O)NC2CCN(C)CC2)ccc1Nc1ncc2c(n1)N(CCC(C)C)CCC(=O)N2C [compound 68, 3-Methoxy-4-[5-methyl-9-(3-methyl-butyl)-6-oxo-6,7,8,9-tetrahydro-5H-pyrimido[4,5-b][1,4]diazepin-2-ylamino]-N-(1-methyl-piperidin-4-yl)-benzamide] | < 1000 nM
12 | COc1cc(C(=O)NC2CCN(C)CC2)ccc1Nc1ncc2c(n1)N(CC1CCCC1)CCC(=O)N2C [compound 69, 4-(9-Cyclopentylmethyl-5-methyl-6-oxo-6,7,8,9-tetrahydro-5H-pyrimido[4,5-b][1,4]diazepin-2-ylamino)-3-methoxy-N-(1-methyl-piperidin-4-yl)-benzamide] | < 1000 nM
13 | COc1ccc(Nc2ncc3c(n2)N(C2CCCC2)CCC(=O)N3C)c(OC)c1 [compound 71, 9-Cyclopentyl-2-(2,4-dimethoxy-phenylamino)-5-methyl-5,7,8,9-tetrahydro-pyrimido[4,5-b][1,4]diazepin-6-one] | < 100 nM
14 | COc1ccc(CNc2ncc3c(n2)N(C2CCCC2)CCC(=O)N3C)cc1 [compound 92, 9-Cyclopentyl-2-(4-methoxy-benzylamino)-5-methyl-5,7,8,9-tetrahydro-pyrimido[4,5-b][1,4]diazepin-6-one] | < 10000 nM
15 | CN1C(=O)CCN(C2CCCC2)c2nc(NCc3cccs3)ncc21 [compound 94, 9-Cyclopentyl-5-methyl-2-[(thiophen-2-ylmethyl)-amino]-5,7,8,9-tetrahydro-pyrimido[4,5-b][1,4]diazepin-6-one] | < 10000 nM
16 | COc1cc(C(=O)Nc2ccccc2)ccc1Nc1ncc2c(n1)N(C1CCCC1)CCC(=O)N2C [compound 95, 4-(9-Cyclopentyl-5-methyl-6-oxo-6,7,8,9-tetrahydro-5H-pyrimido[4,5-b][1,4]diazepin-2-ylamino)-3-methoxy-N-phenyl-benzamide] | < 10000 nM
17 | CN1C(=O)CCN(C2CCCC2)c2nc(Nc3cccc4cc[nH]c34)ncc21 [compound 98, 9-Cyclopentyl-2-(1H-indol-7-ylamino)-5-methyl-5,7,8,9-tetrahydro-pyrimido[4,5-b][1,4]diazepin-6-one] | < 1000 nM
18 | COc1cc(C(=O)NC2CCN(C)CC2)ccc1Nc1ncc2c(n1)N(C(C)C)CC1(CC1)C(=O)N2C [compound 99, 4-(9-Isopropyl-5-methyl-6-oxo-6,7,8,9-tetrahydro-5H-spiro[pyrimido[4,5-b][1,4]diazepin-3,1′-cyclopropane]-2-ylamino)-3-methoxy-N-(1-methyl-piperidin-4-yl)-benzamide] | < 100 nM
19 | COc1cc(C(=O)NC2CCN(C)CC2)ccc1Nc1ncc2c(n1)N(C1CCCC1)CC1(CCC1)C(=O)N2C [compound 100, 4-(9-Cyclopentyl-5-methyl-6-oxo-6,7,8,9-tetrahydro-5H-spiro[pyrimido[4,5-b][1,4]diazepin-3,1′-cyclobutane]-2-ylamino)-3-methoxy-N-(1-methyl-piperidin-4-yl)-benzamide] | < 100 nM
20 | COc1cc(C(=O)NC2CCN(C)CC2)ccc1Nc1ncc2c(n1)N(C1CCCC1)CC1(CCCC1)C(=O)N2C [compound 101, 4-(9-Cyclopentyl-5-methyl-6-oxo-6,7.8,9-tetrahydro-5H-spiro[pyrimido[4,5-b][1,4]diazepin-3,1′-cyclopentane]-2-ylamino)-3-methoxy-N-(1-methyl-piperidin-4-yl)-benzamide] | < 1000 nM
21 | C=CCN1CCC(=O)N(C)c2cnc(Nc3ccc(C(=O)NC4CCN(C)CC4)cc3OC)nc21 [compound 102, 4-(9-Allyl-5-methyl-6-oxo-6,7,8,9-tetrahydro-5H-pyrimido[4,5-b][1,4]diazepin-2-ylamino)-3-methoxy-N-(1-methyl-piperidin-4-yl)-benzamide] | < 1000 nM
22 | CN1C(=O)CCN(C2CCCC2)c2nc(NCc3ccsc3)ncc21 [compound 106, 9-Cyclopentyl-5-methyl-2-[(thiophen-3-ylmethyl)-amino]-5,7,8,9-tetrahydro-pyrimido[4,5-b][1,4]diazepin-6-one] | < 10000 nM
